Consider eight molecules from ChEMBL document CHEMBL1144136, “Anti-HIV-1 protease triterpenoid saponins from the seeds of Aesculus chinensis” (J Nat Prod, 1999).

The structures appear in SMILES notation. pIC50: −log10 of the molar value.

Chain of Protease (Human immunodeficiency virus 1) (Q9YQ12 as listed by the source): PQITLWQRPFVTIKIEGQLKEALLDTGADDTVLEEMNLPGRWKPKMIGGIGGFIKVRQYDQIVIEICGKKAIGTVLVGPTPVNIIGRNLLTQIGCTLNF

The target of the first experiment is Protease (Human immunodeficiency virus 1, UniProt Q9YQ12). Kind of experiment: Inhibition of HIV1 protease.
Chain of Protease (Q9YQ12 whole entry): as the sequence (Q9YQ12 as listed by the source) above
What is called pIC50 is the negative decadic logarithm of the IC50, by convention in mol/L. A higher pIC50 goes with a small IC50. Consider `C/C=C(/C)C(=O)O[C@H]1[C@H](OC(C)=O)[C@]2(CO)[C@H](O)C[C@]3(C)C(=CC[C@@H]4[C@@]5(C)CC[C@H](O[C@@H]6O[C@H](C(=O)O)[C@@H](O[C@@H]7O[C@H](CO)[C@@H](O)[C@H](O)[C@H]7O)[C@H](O)[C@H]6O[C@@H]6O[C@H](CO)[C@@H](O)[C@H](O)[C@H]6O)[C@](C)(CO)[C@@H]5CC[C@]43C)[C@@H]2CC1(C)C` [ESCIN IB], for which the pIC50 is 4.30.

The molecule `C/C=C(\C)C(=O)O[C@H]1[C@H](OC(C)=O)[C@]2(CO)[C@H](O)C[C@]3(C)C(=CC[C@@H]4[C@@]5(C)CC[C@H](O[C@@H]6O[C@H](C(=O)O)[C@@H](O[C@@H]7O[C@H](CO)[C@@H](O)[C@H](O)[C@H]7O)[C@H](O)[C@H]6O[C@@H]6O[C@H](CO)[C@@H](O)[C@H](O)[C@H]6O)[C@](C)(CO)[C@@H]5CC[C@]43C)[C@@H]2CC1(C)C` [ESCIN IA] gave a negative-log IC50 (pIC50) of 4.46.

Another experiment addresses Protease (Human immunodeficiency virus 1) (UniProt Q9YQ12). Kind of experiment: Inhibition of HIV1 protease at 100 uM.
The inhibition is the relative decrease from the control value, in per cent. Higher therefore signals a response far below the control. `C/C=C(/C)C(=O)O[C@H]1[C@H](O)[C@]2(COC(C)=O)[C@H](O)C[C@]3(C)C(=CC[C@@H]4[C@@]5(C)CC[C@H](O[C@@H]6O[C@H](C(=O)O)[C@@H](O[C@@H]7O[C@H](CO)[C@@H](O)[C@H](O)[C@H]7O)[C@H](O)[C@H]6O[C@@H]6O[C@H](CO)[C@@H](O)[C@H](O)[C@H]6O)[C@](C)(CO)[C@@H]5CC[C@]43C)[C@@H]2CC1(C)C` yielded an inhibition of 14.7%.

As to `C/C=C(/C)C(=O)OC[C@@]12[C@H](O)C[C@]3(C)C(=CC[C@@H]4[C@@]5(C)CC[C@H](O[C@@H]6O[C@H](C(=O)O)[C@@H](O[C@@H]7O[C@H](CO)[C@@H](O)[C@H](O)[C@H]7O)[C@H](O)[C@H]6O[C@@H]6O[C@H](CO)[C@@H](O)[C@H](O)[C@H]6O)[C@](C)(CO)[C@@H]5CC[C@]43C)[C@@H]1CC(C)(C)[C@@H](O)[C@@H]2O`, the inhibition was 12.5%.

As to `C/C=C(\C)C(=O)O[C@H]1[C@H](O)C(C)(C)C[C@H]2C3=CC[C@@H]4[C@@]5(C)CC[C@H](O[C@@H]6O[C@H](C(=O)O)[C@@H](O[C@@H]7O[C@H](CO)[C@@H](O)[C@H](O)[C@H]7O)[C@H](O)[C@H]6O[C@@H]6O[C@H](CO)[C@@H](O)[C@H](O)[C@H]6O)[C@](C)(CO)[C@@H]5CC[C@@]4(C)[C@]3(C)C[C@@H](O)[C@]21COC(C)=O`, the inhibition turned out to be 35.2%.

Regarding `C/C=C(\C)C(=O)OC[C@@]12[C@H](O)C[C@]3(C)C(=CC[C@@H]4[C@@]5(C)CC[C@H](O[C@@H]6O[C@H](C(=O)O)[C@@H](O[C@@H]7O[C@H](CO)[C@@H](O)[C@H](O)[C@H]7O)[C@H](O)[C@H]6O[C@@H]6O[C@H](CO)[C@@H](O)[C@H](O)[C@H]6O)[C@](C)(CO)[C@@H]5CC[C@]43C)[C@@H]1CC(C)(C)[C@@H](O)[C@@H]2O`, the inhibition was 15.9%.

As to `C/C=C(\C)C(=O)O[C@H]1[C@H](O)[C@]2(COC(C)=O)[C@H](O)C[C@]3(C)C(=CC[C@@H]4[C@@]5(C)CC[C@H](O[C@@H]6O[C@H](C(=O)O)[C@@H](O[C@@H]7O[C@H](CO)[C@@H](O)[C@H](O)[C@H]7O)[C@H](O)[C@H]6O[C@@H]6O[C@H](CO)[C@@H](O)[C@H](O)[C@H]6O)[C@](C)(CO)[C@@H]5CC[C@]43C)[C@@H]2CC1(C)C`, the inhibition amounted to 39%.

On to `C/C=C(/C)C(=O)O[C@H]1[C@H](O)C(C)(C)C[C@H]2C3=CC[C@@H]4[C@@]5(C)CC[C@H](O[C@@H]6O[C@H](C(=O)O)[C@@H](O[C@@H]7O[C@H](CO)[C@@H](O)[C@H](O)[C@H]7O)[C@H](O)[C@H]6O[C@@H]6O[C@H](CO)[C@@H](O)[C@H](O)[C@H]6O)[C@](C)(CO)[C@@H]5CC[C@@]4(C)[C@]3(C)C[C@@H](O)[C@]21COC(C)=O`, for which the inhibition is 34%.
